Activity calls are given as the source filed them. No stated cut-off is given here; in the data, actives have a measured IC50 and inactives only a lower limit.
Assays:
[1] = molecular target: T1, Sentrin-specific protease 6 (Homo sapiens, UniProt Q9GZR1); format: functional;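 further: Luminescence-based dose-response confirmatory assay of SENP6 inhibition, following up an ultra-high-throughput screen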
T1 sequence (Q9GZR1 whole entry): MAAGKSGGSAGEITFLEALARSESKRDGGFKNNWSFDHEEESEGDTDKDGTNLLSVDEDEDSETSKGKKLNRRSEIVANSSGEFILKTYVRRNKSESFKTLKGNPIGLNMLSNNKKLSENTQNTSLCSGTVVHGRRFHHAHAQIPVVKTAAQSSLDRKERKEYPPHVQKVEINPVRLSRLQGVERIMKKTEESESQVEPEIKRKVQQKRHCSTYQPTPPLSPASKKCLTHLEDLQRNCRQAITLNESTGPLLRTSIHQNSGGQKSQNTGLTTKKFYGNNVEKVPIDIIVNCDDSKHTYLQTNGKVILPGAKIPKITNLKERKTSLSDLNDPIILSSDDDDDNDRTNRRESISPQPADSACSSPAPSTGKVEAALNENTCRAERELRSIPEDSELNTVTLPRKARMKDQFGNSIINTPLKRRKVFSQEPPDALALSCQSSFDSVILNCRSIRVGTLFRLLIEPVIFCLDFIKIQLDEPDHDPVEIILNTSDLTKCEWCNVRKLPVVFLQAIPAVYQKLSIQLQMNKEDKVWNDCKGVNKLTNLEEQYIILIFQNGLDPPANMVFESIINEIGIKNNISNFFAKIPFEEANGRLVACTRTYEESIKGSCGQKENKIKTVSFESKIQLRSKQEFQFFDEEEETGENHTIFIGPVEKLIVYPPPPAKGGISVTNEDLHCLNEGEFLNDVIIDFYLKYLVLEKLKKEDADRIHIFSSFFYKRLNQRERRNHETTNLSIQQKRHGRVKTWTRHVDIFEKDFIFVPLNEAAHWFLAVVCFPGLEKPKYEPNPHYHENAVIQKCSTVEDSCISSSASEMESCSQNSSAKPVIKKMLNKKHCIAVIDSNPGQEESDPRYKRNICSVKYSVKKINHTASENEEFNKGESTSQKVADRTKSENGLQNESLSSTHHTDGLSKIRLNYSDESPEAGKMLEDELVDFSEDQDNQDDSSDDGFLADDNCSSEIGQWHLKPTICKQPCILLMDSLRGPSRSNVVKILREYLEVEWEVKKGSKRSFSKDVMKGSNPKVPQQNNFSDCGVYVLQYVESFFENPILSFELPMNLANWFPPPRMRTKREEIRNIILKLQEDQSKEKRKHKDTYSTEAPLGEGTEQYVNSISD

[2] = molecular target: T2, Apoptotic protease-activating factor 1 (Homo sapiens, UniProt O14727); format: functional
T2 sequence (O14727 whole entry): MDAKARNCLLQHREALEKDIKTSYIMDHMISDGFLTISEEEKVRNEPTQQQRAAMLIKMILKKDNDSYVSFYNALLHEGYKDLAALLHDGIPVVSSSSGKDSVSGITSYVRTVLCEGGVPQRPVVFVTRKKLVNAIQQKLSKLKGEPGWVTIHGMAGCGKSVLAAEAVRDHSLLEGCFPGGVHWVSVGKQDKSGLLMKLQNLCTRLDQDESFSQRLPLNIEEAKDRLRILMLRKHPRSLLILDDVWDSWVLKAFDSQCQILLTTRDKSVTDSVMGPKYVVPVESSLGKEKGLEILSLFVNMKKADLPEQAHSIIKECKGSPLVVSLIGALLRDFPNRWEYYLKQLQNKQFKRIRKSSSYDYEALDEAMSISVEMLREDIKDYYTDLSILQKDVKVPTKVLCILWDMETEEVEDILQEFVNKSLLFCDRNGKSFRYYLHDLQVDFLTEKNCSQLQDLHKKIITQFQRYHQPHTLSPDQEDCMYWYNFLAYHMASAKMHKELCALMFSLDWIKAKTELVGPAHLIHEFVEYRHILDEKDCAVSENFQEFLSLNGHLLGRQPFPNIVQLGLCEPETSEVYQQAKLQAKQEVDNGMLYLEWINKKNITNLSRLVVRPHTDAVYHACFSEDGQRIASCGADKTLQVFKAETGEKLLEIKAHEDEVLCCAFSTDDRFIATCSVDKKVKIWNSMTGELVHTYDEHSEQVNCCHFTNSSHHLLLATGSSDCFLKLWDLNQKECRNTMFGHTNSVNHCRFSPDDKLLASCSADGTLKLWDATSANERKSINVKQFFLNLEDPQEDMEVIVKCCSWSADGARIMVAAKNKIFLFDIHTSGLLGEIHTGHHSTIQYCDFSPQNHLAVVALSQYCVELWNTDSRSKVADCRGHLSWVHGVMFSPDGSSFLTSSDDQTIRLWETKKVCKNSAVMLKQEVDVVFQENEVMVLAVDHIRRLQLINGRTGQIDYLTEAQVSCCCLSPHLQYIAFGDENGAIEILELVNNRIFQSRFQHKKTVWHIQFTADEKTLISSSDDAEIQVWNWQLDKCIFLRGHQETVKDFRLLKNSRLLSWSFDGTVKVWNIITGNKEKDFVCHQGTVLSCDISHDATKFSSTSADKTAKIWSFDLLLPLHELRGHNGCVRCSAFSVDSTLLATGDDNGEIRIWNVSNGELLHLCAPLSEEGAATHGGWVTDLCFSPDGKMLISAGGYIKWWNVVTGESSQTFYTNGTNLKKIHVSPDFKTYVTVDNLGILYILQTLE

For O=C(NN=c1c(=O)c2ccccc2c1=O)c1ccccc1, the IC50 [1] was 3470 nM (active) and the IC50 [2] was 1660 nM (active).

From ChEMBL document CHEMBL1201862, “PubChem BioAssay data set” (2004)
